Experimental data published in patent US20050004225A1, “Oxidoreductase inhibitors and methods of screening and using thereof” (priority 2003, published 2005).
Read-outs that look alike come from different tables or passages of the source. Blank lines part the entries; values can stand above or below the molecule they belong to.

Assays:
human aldose reductase = molecular target: T1, human aldose reductase (Homo sapiens, UniProt P15121); assay: Inhibition of recombinant human aldose reductase, DL-glyceraldehyde reduction, NADPH at 340 nm; format: biochemical
T1 construct: His-tag (cleaved yes); made in house; host or cells: E. coli BL21
Description: DL Glyceraldehyde, NADPH, and Bezafibrate (2-[4-[2-(4-chlorobenzamiso)ethyl]phenoxy]-2-methyl-propionic acid) were purchased from Sigma-Aldrich. All other chemicals used were of the highest purity available.
Human aldose reductase was recombinantly expressed in E. coli BL21, purified, and used for testing the efficacy of Bezafibrate in regulating aldehyde reduction reaction. […] Over night grown culture was inoculated (25 ml/l) into four 3 l flasks each containing 11 LB supplemented with ampicillin (50 μg/ml) at 37° C. with shaking (250 rpm) for 3 to 4 h until an attenuance (A600) of ˜0.7. Isopropyl β-D-thiogalactoside (IPTG, 1 mM) was added to the culture and was further incubated for 3 h to induce the expression of human aldose reductase gene. […] Cell pellets were resuspended in 80 ml of Talon extraction/wash buffer, (pH 7.9, Clonetech), and lysed by sonication with ten pulses (30 s each) and centrifuged at 12 000 g. […] The slurry was then transferred into a column allowing the matrix to pack and the supernatant to pass through at a flow rate of […]. The column was washed with 50 ml of Talon extraction/wash buffer, and the enzyme was eluted with 50 ml of Talon elution buffer. The eluted protein was dialyzed overnight using Spectra/Por 5-8 kDa MWCO at 4° C. in 50 mM sodium phosphate buffer (pH 7.0) containing 1 mM 2-mercaptoethanol. His-tag from the dialyzed protein was removed using thrombin cleavage kit (Novagen) by adding 1 μl of thrombin to 4 mg of protein and incubating overnight at room temperature. The purity of the protein at each stage of purification was assessed by SDS PAGE, and staining the gels with Coomassie Blue.
Activity with various concentrations of DL glyceraldehyde in the absence and, in the presence of various concentrations of Bezafibrate was determined by monitoring the change in NADPH concentration at room temperature 28±2° C. in a Beckman DU600 model spectrophotometer by measuring the absorbance at 340 nm, in 0.01 M sodium phosphate buffer (pH 6.2). Kinetic parameters were obtained from initial-rate activity measurements, with substrate concentrations of 0.05 mM to 10 mM. Each individual rate measurement was done in duplicate. At least three independent determinations were performed for each kinetic constant. Values were calculated using Sigmaplot Ver 8.0 (SPSS Inc.) using a non-linear Marquardt's regression algorithm that computes the coefficients (parameters) of the independent variable(s) that give the “best fit” between the equation and the data. Inhibition-constant (Ki) and, the IC50 values for bezofibrate was calculated from the secondary plot of slope values from the double-reciprocal plot versus inhibitor concentration and from the plot of rate of reaction versus inhibitor concentration respectively.
The initial rates in the presence of Bezafibrate were analyzed by using equation 1: v=Vmax/((1+Km/S)*(1+I/Ki)/(1+I*beta/Ki)) (1) where, v=rate of reaction, Vmax=maximum initial velocity for the uninhibited reaction, Km=Michaelis constant in the absence of inhibitor, Ki=inhibition constant and beta=the rate constant when enzyme substrate complex breaks down to Enzyme and Product.

rat aldose reductase = rat aldose reductase (Rattus norvegicus, UniProt P07943); conditions: cited from earlier work
[1] = tested on: HeLa cervical carcinoma cells; conditions: cited from earlier work
[2] = tested on: B16 melanoma-induced cachexia; conditions: cited from earlier work; for B16 melanoma-induced cachexia: mice
hepatoma cells = conditions: in the presence of 3-deoxyglucosone and glyceraldehydes; cited from earlier work
[3] = tested on: isolated rabbit cardiac myocytes; assay: Cellular metabolism of adenine propenal in isolated cardiac myocytes (HPLC, ESI+/MS); format: cell-based; conditions: 10 μM adenine propenal
Description: (§1) The cellular metabolism of base propenals was examined in isolated rabbit cardiac myocytes and COS-7 cells. The myocytes from rabbit ventricle were isolated as described in (46) and the COS-7 cells were obtained from ATCC. For metabolic studies, the cells were incubated with 10 μM of adenine propenal in Hepes-Ringer's buffer, pH 7.4. After 30 min of incubation, the medium was removed, and the adenine propenal and metabolites in the medium were separated by HPLC. […] To establish the structure of the glutathione conjugate peak I of the metabolites was injected into ESI^+/MS.
(§2) To probe the role of AR further, whether upregulation of AR would enhance the reductive metabolism of adenine propenal was examined. To enhance the expression of AR, the COS-7 cells were transfected with AR cDNA using lipofectamine.

COS-7 cells [4] = assay: Cellular metabolism of adenine propenal in COS-7 cells (HPLC, ESI+/MS); format: cell-based; conditions: 10 μM adenine propenal; for reduction of the glutathione conjugate of adenine propenal in the presence of AR inhibitor: COS-7 cells
Description: as §1, §2
To examine changes in metabolism, the cells transfected with AR cDNA and the empty vector were incubated with 10 μM adenine propenal as described before. After 30 min of incubation, the medium was collected and separated by HPLC.

COS-7 cells [5] = assay: Toxicity of adenine propenal to COS-7 cells, MTT assay; format: cell-based; conditions: 100 μM adenine propenal, pre-incubated with 100 μM sorbinil
[6] = molecular target: T2, rat lens aldose reductase (Rattus norvegicus, UniProt P07943); conditions: cited from earlier work
T2 construct: host or cells: rat lens (as named)

[7] = tested on: murine adenocarcinoma colon26-induced cachexia; conditions: cited from earlier work
human monocytes = human monocytes stimulated by LPS in vitro; cited from earlier work
interleukin-1 (IL-1) = conditions: mice; cited from earlier work
[8] = reduction of glyceraldehyde, read-out: Ki value
[9] = saturating substrate (10 mM DL-glyceraldehyde), read-out: IC50 value
[10] = Table I, recombinant human AR, reduction of DL-glyceraldehyde, read-out: K1

inhibitory effect on AR activity (in words) (human aldose reductase): inhibitory effect
Ki (human aldose reductase; [8]): 1.04 ± 0.047 µM
IC50 (human aldose reductase; [9]): 1.2 ± 0.1 µM
Structure (SMILES): CC(C)(Oc1ccc(Cl)cc1)C(=O)O [2-4-Chlorophenoxy clofibric acid]

Ki (human aldose reductase; apparent noncompetitive inhibition constant, read-out: Ki value, unit inferred): 2 µM
IC50 (human aldose reductase; [9]): 3.8 µM
Structure (SMILES): CC(C)(Oc1ccc(CCNC(=O)c2ccc(Cl)cc2)cc1)C(=O)O [Bezafibrate, 2-[4-[2-(4-chlorobenzamiso)ethyl]phenoxy]-2-methyl-propionic acid]

Structure (SMILES): COc1cccc2c1C(=O)c1c(O)c3c(c(O)c1C2=O)C[C@@](O)(C(C)=O)C[C@@H]3O[C@H]1C[C@H](N)[C@H](O)[C@H](C)O1 [Daunorubicin]
inhibitory effect on AR activity (in words) (human aldose reductase): inhibitory effects
Ki (human aldose reductase; [10]): 21.4 ± 7.67 µM
IC50 (human aldose reductase; [9]): 5 µM

Structure (SMILES): COc1cccc2c1C(=O)c1c(O)c3c(c(O)c1C2=O)C[C@@](O)(C(=O)CO)C[C@@H]3O[C@H]1C[C@H](N)[C@H](O)[C@H](C)O1 [Doxorubicin]
IC50 (human aldose reductase): 0.2 µM
Ki (human aldose reductase): 0.24 ± 0.02 µM

Structure (SMILES): CCOC(=O)C1=C(O)C(=O)N(Cc2ccccc2)C1 [EBPC, ethyl 1-benzyl-3-hydroxy-2(5H)-oxopyrrole-4-carboxylate]
inhibition of rat aldose reductase (rat aldose reductase): inhibits
cell death or proliferation, EBPC alone ([1]; 30 or 50 μM EBPC alone): no effect
percentage of dead cells ([1]; 24 h, doxorubicin or 30 μM cisplatin with 30 or 50 μM EBPC, vs untreated control): significant increase
extracellular signal-regulated kinase (ERK) activity ([1]; EBPC with chemotherapeutic drugs vs chemotherapeutic drugs): increased
cytotoxic effects of doxorubicin and cisplatin ([1]; HeLa cells, combination with EBPC): enhances

Structure (SMILES): COc1cccc2c1C(=O)c1c(O)c3c(c(O)c1C2=O)C[C@@](O)(C(=O)CO)C[C@@H]3O[C@H]1C[C@H](N)[C@@H](O)[C@H](C)O1 [Epirubicin]
IC50 (human aldose reductase): 5.5 µM
Ki (human aldose reductase): 77.6 µM

inhibitory effect on AR activity (in words) (human aldose reductase): inhibitory effect
IC50 (human aldose reductase; Table I, recombinant human AR, reduction of DL-glyceraldehyde, read-out: IC50): 6.5 ± 0.02 µM
Ki (human aldose reductase; [10]): 3.5 ± 0.79 µM
Ki (human aldose reductase; [8]): 2.74 ± 0.072 µM
IC50 (human aldose reductase; [9]): 3 ± 0.2 µM
Structure (SMILES): Cc1ccc(C)c(OCCCC(C)(C)C(=O)O)c1 [Gemfibrozil]

inhibitory effect on AR activity (in words) (human aldose reductase): inhibitory effects
Ki (human aldose reductase; [10]): 20.5 ± 1.5 µM
IC50 (human aldose reductase; [9]): 5.6 µM
Structure (SMILES): CC(=O)[C@]1(O)Cc2c(O)c3c(c(O)c2[C@@H](O[C@H]2C[C@H](N)[C@H](O)[C@H](C)O2)C1)C(=O)c1ccccc1C3=O [Idamycin]

Structure (SMILES): O=[N+]([O-])NC1=NCCN1Cc1ccc(Cl)nc1 [Imidcloprid, N-(6-chloropyridin-3-ylmethyl)-2-nitroiminoimidazolidine]
IC50 (human aldose reductase; IC50 value, saturating substrate (10 mM DL-glyceraldehyde)): 1.5 µM
Ki (human aldose reductase; Ki value, reduction of glyceraldehyde): 12.6 µM

Structure (SMILES): CCOP(=O)(Cc1ccc(C(=O)Nc2ccc(Br)cc2C#N)cc1)OCC [NO-1886]
weight of epididymal fat and whole body lipid ([2]; mice after intraperitoneal inoculation of B16): ameliorated
B16 melanoma-induced cachexia [2]: alleviated

Structure (SMILES): CC(/C=C1\SC(=S)N(CC(=O)O)C1=O)=C\c1ccccc1 [ONO-2235]
viability of hepatoma cells (hepatoma cells): decreased

inhibitory effect on AR activity (in words) (human aldose reductase): inhibitory effects
Structure (SMILES): O=C1NC(=O)[C@@]2(CCOc3ccc(F)cc32)N1 [Sorbinil]
reduction of the glutathione conjugate of adenine propenal in the presence of AR inhibitor [3]: significantly prevented
adenine propenol peak (22 min) in AR cDNA-transfected cells (COS-7 cells [4]; AR-transfected COS-7 cells, 30 min, in the presence of sorbinil): completely abolished
reduction of the glutathione conjugate of adenine propenal in the presence of AR inhibitor (COS-7 cells [4]): significantly prevented
half life of cell viability after pre-incubation with AR inhibitor (COS-7 cells [5]): 6.1 ± 0.5 h

Structure (SMILES): N#CC(=C(/N)Sc1ccccc1N)/C(C#N)=C(\N)Sc1ccccc1N [U0126]
EBPC-mediated enhancement of cell death ([1]; inhibition of ERK activation by MEK inhibitor): reversed

inhibitory effect on AR activity (in words) (human aldose reductase): inhibitory effects
Structure (SMILES): O=C(O)Cc1nn(Cc2nc3cc(C(F)(F)F)ccc3s2)c(=O)c2ccccc12 [Zopolrestat]

Structure (SMILES): OC/C=C/c1ccccc1 [ainnnamyl alcohol]
inhibition against rat AR [6]: weak inhibition

Structure (SMILES): O=CC=Cc1ccccc1 [cinnamaldehyde]
inhibition against rat AR [6]: high potency

Structure (SMILES): C=CCc1ccc(O)c(OC)c1 [eugenol]
inhibition against rat AR [6]: weak inhibition

Structure (SMILES): O=C(O)Cc1nn(Cc2ccc(Br)cc2F)c(=O)c2ccccc12 [ponalrestat]
B16 melanoma-induced cachexia [2]: inhibited
survival ([7]; colon26 bearing mice): significantly prolonged
weight of body mass, epididymal fat, gastrocnemius muscle and carcass ([7]; colon26 bearing mice): attenuated the reduction
tumor growth ([7]; mice bearing colon26 subcutaneously): slightly stimulated
production of interleukin-1 (IL-1) (human monocytes): inhibited
LPS-induced increase of IL-1 in the blood (interleukin-1 (IL-1)): suppressed

Structure (SMILES): COc1ccc2c(C(=S)N(C)CC(=O)O)cccc2c1C(F)(F)F [tolrestat]
reduction of the glutathione conjugate of adenine propenal in the presence of AR inhibitor [3]: significantly prevented
reduction of the glutathione conjugate of adenine propenal in the presence of AR inhibitor (COS-7 cells [4]): significantly prevented

Structure (SMILES): O=C(O)/C=C/c1ccccc1 [trans-cinnamic acid]
inhibition against rat AR [6]: weak inhibition

Structure (SMILES): N#CC(=Cc1ccc(O)cc1)C(=O)O [α-cyano-4-hydroxycinnamic acid]
IC50 (human aldose reductase): 0.08 ± 0.005 µM
Ki (human aldose reductase): 0.085 µM
inhibition pattern with respect to reduction of glyceraldehyde, forward direction (human aldose reductase; recombinant hAR, Lineweaver-Burk plot): partial noncompetitive inhibition pattern
